Experimental data taken from ChEMBL document CHEMBL3272190, “(2-exo-3-endo)-2-Aryltropane-3-carboxylic esters, a new class of narcotic antagonists” (J Med Chem, 1978).
The source made the active and inactive calls. The rule behind the calls is not given here.

Experiments:
Rattus norvegicus [1] = assay: Narcotic analgesic activity in sc dosed rat assessed as inhibition of phenazocine-induced effect by D'Amour-Smith tail flick test; type: functional
Mus musculus [2] = assay: Antiwrithing activity in sc dosed mouse assessed as prevention of acetylcholine-induced abdominal constriction response; type: functional; conditions: Abdomen
Rattus norvegicus [3] = assay: Narcotic analgesic activity in po dosed rat assessed as inhibition of phenazocine-induced effect by D'Amour-Smith tail flick test; type: functional
Mus musculus [4] = assay: Induction of depression in mouse at 75 mg/kg, sc; type: organism-based; set-up: dose 75 mg/kg, route subcutaneous; conditions: in vivo
Mus musculus [5] = assay: Antiwrithing activity in mouse assessed as prevention of acetylcholine-induced abdominal constriction response at 100 mg/kg, sc; type: functional, Abdomen; conditions: route subcutaneous
Mus musculus [6] = assay: Antiwrithing activity in mouse assessed as prevention of acetylcholine-induced abdominal constriction response at 25 mg/kg, sc; type: functional, Abdomen; conditions: route subcutaneous
Mus musculus [7] = assay: Antiwrithing activity in sc dosed mouse assessed as prevention of phenyl-p-benzoquinone-induced abdominal constriction response; type: functional; conditions: Abdomen
Mus musculus [8] = assay: Induction of sedation in mouse at 40 mg/kg, sc; type: organism-based; set-up: dose 40 mg/kg, route subcutaneous; conditions: in vivo
Rattus norvegicus [9] = assay: Induction of tremors in rat at 120 mg/kg, sc; type: organism-based; set-up: dose 120 mg/kg, route subcutaneous; conditions: in vivo
Rattus norvegicus [10] = assay: Narcotic analgesic activity in po dosed rat assessed as inhibition of morphine-induced effect by D'Amour-Smith tail flick test; type: functional, organism-based
Mus musculus [11] = assay: Induction of hyperexcitable in mouse at 100 mg/kg, sc; type: organism-based; set-up: dose 100 mg/kg, route subcutaneous; conditions: in vivo
Rattus norvegicus [12] = assay: Narcotic analgesic activity in po dosed rat assessed as inhibition of meperidine-induced effect by D'Amour-Smith tail flick test; type: functional, organism-based
Rattus norvegicus [13] = assay: Analgesic activity in rat assessed as inhibition of intraarterial bradykinin-induced effect up to 100 mg/kg, sc; type: functional
Mus musculus [14] = assay: Antiwrithing activity in po dosed mouse assessed as prevention of phenyl-p-benzoquinone-induced abdominal constriction response; type: functional; conditions: Abdomen
Rattus norvegicus [15] = assay: Induction of convulsion in rat at 120 mg/kg, sc; type: organism-based; set-up: dose 120 mg/kg, route subcutaneous; conditions: in vivo
Rattus norvegicus [16] = assay: Narcotic analgesic activity in sc dosed rat assessed as inhibition of meperidine-induced effect by D'Amour-Smith tail flick test; type: functional, organism-based
Rattus norvegicus [17] = assay: Narcotic analgesic activity in sc dosed rat assessed as inhibition of morphine-induced effect by D'Amour-Smith tail flick test; type: functional, organism-based
Mus musculus [18] = assay: Antiwrithing activity in po dosed mouse assessed as prevention of acetylcholine-induced abdominal constriction response; type: functional; conditions: Abdomen
Rattus norvegicus [19] = assay: Induction of hyperactiveness in rat at 200 mg/kg, po; type: organism-based; set-up: dose 200 mg/kg, route oral; conditions: in vivo
Rattus norvegicus [20] = assay: Induction of depression in rat at 75 mg/kg, sc; type: organism-based; set-up: dose 75 mg/kg, route subcutaneous; conditions: in vivo
Mus musculus [21] = assay: Analgesic activity in mouse assessed as inhibition of intraarterial bradykinin-induced effect at 50 mg/kg, sc; type: functional, organism-based; set-up: dose 50 mg/kg
Mus musculus [22] = assay: Induction of convulsion in mouse at 75 mg/kg, sc; type: organism-based; set-up: dose 75 mg/kg, route subcutaneous; conditions: in vivo
Mus musculus [23] = assay: Antiwrithing activity in mouse assessed as prevention of acetylcholine-induced abdominal constriction response at 15 mg/kg, sc; type: functional, Abdomen; conditions: route subcutaneous
Mus musculus [24] = assay: Toxicity in mouse assessed as mortality at >15 mg/kg, sc; type: organism-based; conditions: in vivo
Mus musculus [25] = assay: Induction of hyperactiveness in mouse at 30 mg/kg, sc; type: organism-based; set-up: dose 30 mg/kg, route subcutaneous; conditions: in vivo

For `COC(=O)[C@H]1C[C@H]2CC[C@H]([C@H]1c1ccccc1)N2C`, the AD50 (Rattus norvegicus [1]) was greater than 80 mg/kg.
For `COC(=O)[C@H]1C[C@H]2CC[C@@H]([C@H]1c1ccccc1)N2C`, the AD50 (Rattus norvegicus [1]) was 3.3 mg/kg.
`COC(=O)[C@H]1C[C@H]2CC[C@@H](N2)[C@H]1c1cccc(O)c1` gave an ED50 (Mus musculus [2]) of 60 mg/kg and an AD50 (Rattus norvegicus [1]) greater than 80 mg/kg.
`COC(=O)[C@H]1C[C@H]2CC[C@H](N2)[C@H]1c1cccc(O)c1` gave an ED50 (Mus musculus [2]) of 60 mg/kg, an AD50 (Rattus norvegicus [3]) of 14 mg/kg and an AD50 (Rattus norvegicus [1]) of 0.3 mg/kg.
For `COC(=O)[C@H]1C[C@H]2CC[C@@H]3[C@H]1c1cc(O)ccc1CN23`, the Activity (Mus musculus [4]) was “Toxic”, the Activity (Mus musculus [5]) was 100% and the Activity (Mus musculus [6]) was 0%. The AD50 (Rattus norvegicus [1]) was 1.45 mg/kg.
In the case of `COC(=O)[C@H]1C[C@H]2CC[C@@H]3[C@H]1c1cccc(O)c1CN23`, the AD50 (Rattus norvegicus [1]) is reported as 2 mg/kg.
With `COC(=O)[C@@H]1C[C@H]2CCC([C@H]1c1ccccc1)N2C` (mixture of isomers) the ED50 (Mus musculus [2]) was 12 mg/kg, the ED50 (Mus musculus [7]) was 17 mg/kg and the Activity (Mus musculus [8]) was “Toxic”. The Activity (Rattus norvegicus [9]) was “Toxic” and the AD50 (Rattus norvegicus [1]) was greater than 80 mg/kg.
`COC(=O)[C@H]1C[C@H]2CCC([C@H]1c1ccccc1)N2C` (mixture of isomers) was tested, and the ED50 (Mus musculus [2]) was 12 mg/kg, the Activity (Rattus norvegicus [10]) was “inactive” and the Activity (Mus musculus [11]) was “Toxic”. The ED50 (Mus musculus [7]) was 43 mg/kg, the AD50 (Rattus norvegicus [3]) was 1.1 mg/kg and the Activity (Rattus norvegicus [12]) was “inactive”. For the same compound, the Activity (Mus musculus [8]) was “Toxic”, the Activity (Rattus norvegicus [13]) was “inactive” and the ED50 (Mus musculus [14]) was greater than 200 mg/kg. The Activity (Rattus norvegicus [15]) was “Toxic”, the AD50 (Rattus norvegicus [1]) was 5.5 mg/kg and the Activity (Rattus norvegicus [16]) was “inactive”. For the same compound, the Activity (Rattus norvegicus [17]) was “inactive” and the ED50 (Mus musculus [18]) was 16 mg/kg.
In the case of `COC(=O)[C@H]1C[C@H]2CCC(N2)[C@H]1c1cccc(O)c1` (mixture of isomers), the AD50 (Rattus norvegicus [1]) is reported as 2 mg/kg.
`COC(=O)C1C[C@H]2CC[C@H]([C@H]1c1cccs1)N2C` (mixture of isomers) was tested, and the ED50 (Mus musculus [2]) was 13 mg/kg, the ED50 (Mus musculus [7]) was 60 mg/kg and the Activity (Mus musculus [4]) was “Toxic”. For the same compound, the AD50 (Rattus norvegicus [1]) was 4.9 mg/kg.
For `COC(=O)[C@H]1C[C@H]2CC[C@H]([C@H]1c1ccc[nH]1)N2C` (racemic), the Activity (Rattus norvegicus [19]) was “Toxic”, the AD50 (Rattus norvegicus [1]) was greater than 80 mg/kg and the ED50 (Mus musculus [18]) was 34 mg/kg.
`COC(=O)[C@@H]1C[C@H]2CC[C@H]([C@H]1c1ccccc1)N2Cc1ccccc1` (racemic) gave an ED50 (Mus musculus [2]) greater than 75 mg/kg, an AD50 (Rattus norvegicus [1]) greater than 80 mg/kg and an ED50 (Mus musculus [18]) of 21 mg/kg.
For `COC(=O)[C@H]1C[C@H]2CC[C@@H](N2)[C@H]1c1ccccc1` (racemic), the ED50 (Mus musculus [2]) was 3.4 mg/kg, the Activity (Rattus norvegicus [20]) was “Toxic” and the ED50 (Mus musculus [7]) was 22 mg/kg. The AD50 (Rattus norvegicus [3]) was 4.1 mg/kg, the Activity (Rattus norvegicus [9]) was “Toxic” and the Activity (Mus musculus [21]) was “Active”. It also gave an ED50 (Mus musculus [14]) of 100 mg/kg, an AD50 (Rattus norvegicus [1]) of 2.1 mg/kg and an ED50 (Mus musculus [18]) of 8.4 mg/kg.
`COC(=O)[C@H]1C[C@H]2CC[C@H]([C@H]1c1ccccc1)N2CC1CC1` (racemic) was tested, and the ED50 (Mus musculus [2]) was 10 mg/kg, the Activity (Mus musculus [22]) was “Toxic” and the Activity (Mus musculus [23]) was 67%. The Activity (Mus musculus [24]) was “Toxic”, the Activity (Mus musculus [25]) was “Toxic” and the AD50 (Rattus norvegicus [1]) was 10 mg/kg.
With `CN1[C@@H]2CC[C@@H]1[C@@H](c1ccccc1)[C@@H](C(=O)O)C2` (racemic) the AD50 (Rattus norvegicus [1]) was greater than 80 mg/kg.
`CC(C)OC(=O)[C@H]1C[C@H]2CC[C@H]([C@H]1c1ccccc1)N2C` (racemic) was tested, and the ED50 (Mus musculus [2]) was 16 mg/kg, the Activity (Mus musculus [25]) was “Toxic” and the Activity (Rattus norvegicus [15]) was “Toxic”. The AD50 (Rattus norvegicus [1]) was greater than 80 mg/kg.
